Values of other authors as cited in patent US5173423A, “Process for breeding a glabrous variety of rice crop and a glabrous plant” (Sumitomo Chemical Company Limited, priority 1990, dated 1992).

Tested on: Ginbozu
Settings: mutation breeding; induced variation: chlorosis; variety Ginbozu

Structure (SMILES)	Frequency of occurrence of variants [%]
Nc1ncc2[nH]cnc2n1 [2-AP, 2-aminopurine]	0.57
O=c1[nH]cc(Br)c(=O)[nH]1 [5-BU, 5-bromouracil]	1.0
